In patent publication US12448369B2 (Edgewise Therapeutics, Inc., priority 2023, dated 2025):

Experiments:
[1] = biological target: T1, Porcine ventricle myofibrils (ventricular myosin ATPase) (Sus scrofa, UniProt P79293); assay: Myofibril ATPase assay, porcine ventricle myofibrils; format: biochemical, porcine (Yucatan minipigs); settings: porcine ventricle myofibrils
T1 construct: Myofibrils from porcine cardiac muscle was isolated from the left ventricle of Yucatan minipigs; tissue Exemplar Genetics; host or cells: left ventricle of Yucatan minipigs, myofibrils prepared in house
Method in brief: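 ATPase activity of porcine left-ventricular myofibrils is tracked as the slope of NADH loss at 340 nm through a PK/LDH couple. Values are the concentrations that bring activity to 75% (inhibitors) or 125% (activators) of vehicle.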

[2] = test system: Rabbit Psoas myofibrils (skeletal myosin ATPase); assay: Myofibril ATPase assay, rabbit psoas (skeletal) myofibrils; format: biochemical; settings: rabbit psoas myofibrils
Method in brief: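 Values derive from concentration–response fits of NADH consumption rates at 340 nm, normalized to vehicle-only wells, as Y75 or Y125. Myofibril ATP turnover was linked to NADH via PK/LDH in Ca/EGTA-buffered PIPES, pH 7.0, and read over 75 min.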

[3] = test system: Porcine atria myofibrils (atrial myosin ATPase); assay: Myofibril ATPase assay, porcine atria myofibrils; format: biochemical; settings: porcine atria myofibrils
Method in brief: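 Atrial myofibril ATPase measured by NADH-coupled absorbance at 340 nm; vehicle-normalized slopes fitted to give Y75 or Y125 values.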

[4] = ‡ Y125 value, not a Y75 value (125% activity relative to no compound)

T1 sequence (P79293 whole entry): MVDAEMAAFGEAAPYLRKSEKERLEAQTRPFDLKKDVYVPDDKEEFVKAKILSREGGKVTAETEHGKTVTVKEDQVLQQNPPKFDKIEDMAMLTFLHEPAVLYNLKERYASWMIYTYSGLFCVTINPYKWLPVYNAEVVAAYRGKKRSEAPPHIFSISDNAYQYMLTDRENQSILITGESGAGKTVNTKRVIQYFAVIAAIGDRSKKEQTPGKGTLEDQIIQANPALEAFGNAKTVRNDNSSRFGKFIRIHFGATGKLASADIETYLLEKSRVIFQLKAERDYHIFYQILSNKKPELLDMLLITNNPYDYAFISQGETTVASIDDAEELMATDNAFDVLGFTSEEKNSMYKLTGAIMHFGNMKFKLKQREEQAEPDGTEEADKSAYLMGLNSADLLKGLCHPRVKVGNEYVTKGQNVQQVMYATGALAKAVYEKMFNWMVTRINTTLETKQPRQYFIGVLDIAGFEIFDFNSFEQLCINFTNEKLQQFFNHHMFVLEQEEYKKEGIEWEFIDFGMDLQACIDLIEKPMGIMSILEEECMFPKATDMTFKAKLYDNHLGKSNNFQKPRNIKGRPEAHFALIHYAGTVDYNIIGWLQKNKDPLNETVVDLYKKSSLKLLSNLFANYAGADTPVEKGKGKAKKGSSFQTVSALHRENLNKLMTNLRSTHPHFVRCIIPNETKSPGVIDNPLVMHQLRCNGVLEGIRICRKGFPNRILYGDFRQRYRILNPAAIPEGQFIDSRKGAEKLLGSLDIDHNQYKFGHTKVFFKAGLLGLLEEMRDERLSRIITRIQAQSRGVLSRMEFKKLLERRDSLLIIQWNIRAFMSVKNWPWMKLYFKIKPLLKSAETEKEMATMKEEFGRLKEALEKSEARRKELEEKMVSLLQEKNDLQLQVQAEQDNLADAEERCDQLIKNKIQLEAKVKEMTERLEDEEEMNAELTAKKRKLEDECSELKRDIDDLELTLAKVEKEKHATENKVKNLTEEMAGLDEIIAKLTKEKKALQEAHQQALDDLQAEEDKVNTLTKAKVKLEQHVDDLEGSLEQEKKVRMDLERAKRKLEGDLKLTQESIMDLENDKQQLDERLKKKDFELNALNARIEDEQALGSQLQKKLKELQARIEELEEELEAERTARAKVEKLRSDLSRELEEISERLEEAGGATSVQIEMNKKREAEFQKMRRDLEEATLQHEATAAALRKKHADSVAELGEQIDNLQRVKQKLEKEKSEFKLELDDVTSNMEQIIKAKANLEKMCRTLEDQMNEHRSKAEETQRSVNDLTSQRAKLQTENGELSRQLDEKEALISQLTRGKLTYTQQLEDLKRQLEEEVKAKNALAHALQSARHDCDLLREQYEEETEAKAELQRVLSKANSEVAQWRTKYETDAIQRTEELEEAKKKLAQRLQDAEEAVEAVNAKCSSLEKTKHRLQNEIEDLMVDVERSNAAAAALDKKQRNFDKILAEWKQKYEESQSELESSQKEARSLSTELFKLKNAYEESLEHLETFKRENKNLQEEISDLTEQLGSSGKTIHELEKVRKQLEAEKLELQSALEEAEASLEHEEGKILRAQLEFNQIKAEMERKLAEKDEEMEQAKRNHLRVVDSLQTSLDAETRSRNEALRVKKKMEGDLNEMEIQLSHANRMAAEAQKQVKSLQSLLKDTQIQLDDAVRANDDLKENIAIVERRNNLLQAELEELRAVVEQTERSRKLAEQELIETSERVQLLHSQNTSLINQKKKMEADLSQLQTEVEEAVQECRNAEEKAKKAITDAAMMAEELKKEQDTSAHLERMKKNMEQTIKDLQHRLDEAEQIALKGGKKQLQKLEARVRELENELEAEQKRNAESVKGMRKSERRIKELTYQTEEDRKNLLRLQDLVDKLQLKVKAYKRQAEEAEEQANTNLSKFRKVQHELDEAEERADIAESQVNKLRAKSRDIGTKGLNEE

| SMILES | Ventricular EC25 ([1]; Y75 value (no ‡ mark)) | Skeletal EC25 ([2]; Y75 value (no ‡ mark)) | Atrial EC25 ([3]; Y75 value (no ‡ mark)) | Atrial EC25 [3, 4] | Ventricular EC25 [1, 4] | Skeletal EC25 [2, 4] |
| --- | --- | --- | --- | --- | --- | --- |
| Cc1c(CC(=O)N[C@@H](C)c2ncc(C#N)cc2F)c(=O)[nH]c2ccc(Cl)cc12 (single isomer, unassigned) [compound 2050] | 0.18 µM | 0.04 µM | 0.09 µM |  |  |  |
| Cc1c(CC(=O)N[C@H](C)c2ncc(C#N)cc2F)c(=O)[nH]c2ccc(F)c(Cl)c12 (single isomer, unassigned) [compound 2051] | 0.60 µM | 0.16 µM | 0.43 µM |  |  |  |
| Cc1c(CC(=O)N[C@@H](C)c2ncc(C#N)cc2F)c(=O)[nH]c2ccc(F)c(Cl)c12 (single isomer, unassigned) [compound 2052] | 0.09 µM | 0.08 µM | 0.04 µM |  |  |  |
| C[C@@H](NC(=O)Cc1c(C2CC2)c2cc(F)ccc2[nH]c1=O)c1ccc(C#N)nn1 (single isomer, unassigned) [compound 2053] | 100.00 µM | 12.45 µM | 100.00 µM |  |  |  |
| C[C@H](NC(=O)Cc1c(C2CC2)c2cc(F)ccc2[nH]c1=O)c1ccc(C#N)nn1 (single isomer, unassigned) [compound 2054] | 3.72 µM | 0.15 µM | 0.23 µM |  |  |  |
| Cc1c(CC(=O)N[C@H](C)c2ncc(C#N)cn2)c(=O)[nH]c2ccc(F)c(Cl)c12 (single isomer, unassigned) [compound 2055] | 0.26 µM | 0.11 µM | 0.06 µM |  |  |  |
| Cc1c(CC(=O)N[C@@H](C)c2ncc(C#N)cn2)c(=O)[nH]c2ccc(F)c(Cl)c12 (single isomer, unassigned) [compound 2056] | 0.29 µM | 0.06 µM | 0.11 µM |  |  |  |
| Cc1c(CC(=O)N[C@H](C)c2ccc(C#N)nn2)c(=O)[nH]c2ccc(F)c(C3CC3)c12 (single isomer, unassigned) [compound 2057] | 0.94 µM | 0.27 µM | 0.65 µM |  |  |  |
| Cc1c(CC(=O)N[C@@H](C)c2ccc(C#N)nn2)c(=O)[nH]c2ccc(F)c(C3CC3)c12 (single isomer, unassigned) [compound 2058] | 68.08 µM | 3.15 µM | 100.00 µM |  |  |  |
| Cc1c(CC(=O)N[C@H](C)c2ncc(C#N)cn2)c(=O)[nH]c2ccc(F)c(C3CC3)c12 (single isomer, unassigned) [compound 2059] | 56.97 µM | 1.09 µM |  | 100.00‡ μM |  |  |
| Cc1c(CC(=O)N[C@@H](C)c2ncc(C#N)cn2)c(=O)[nH]c2ccc(F)c(C3CC3)c12 (single isomer, unassigned) [compound 2060] | 3.02 µM | 0.26 µM | 0.45 µM |  |  |  |
| C[C@@H](NC(=O)Cc1c(C2CC2)c2cc(F)ccc2[nH]c1=O)c1ncc(C#N)cn1 (single isomer, unassigned) [compound 2063] | 100.00 µM | 0.50 µM | 0.21 µM |  |  |  |
| C[C@H](NC(=O)Cc1c(C2CC2)c2cc(F)ccc2[nH]c1=O)c1ncc(C#N)cn1 (single isomer, unassigned) [compound 2064] | 32.11 µM | 0.26 µM | 77.71 µM |  |  |  |
| C[C@@H](NC(=O)Cc1c(C2CC2)c2c(F)c(F)ccc2[nH]c1=O)c1ccc(C#N)nn1 (single isomer, unassigned) [compound 2065] | 100.00 µM | 1.10 µM | 100.00 µM |  |  |  |
| C[C@H](NC(=O)Cc1c(C2CC2)c2c(F)c(F)ccc2[nH]c1=O)c1ccc(C#N)nn1 (single isomer, unassigned) [compound 2066] | 7.88 µM | 0.15 µM | 1.06 µM |  |  |  |
| Cc1c(CC(=O)N[C@H](C)c2ncc(C#N)cn2)c(=O)[nH]c2cccc(C#N)c12 (single isomer, unassigned) [compound 2069] | 2.76 µM | 0.49 µM | 0.04 µM |  |  |  |
| C[C@H](NC(=O)Cc1cc2c(F)c(F)ccc2[nH]c1=O)c1ncc(C#N)cn1 (single isomer, unassigned) [compound 2072] | 11.13 µM | 0.35 µM | 0.68 µM |  |  |  |
| Cc1c(CC(=O)N[C@H](C)c2cnc(C#N)nc2)c(=O)[nH]c2cc(F)c(F)cc12 (single isomer, unassigned) [compound 2074] | 10.13 µM | 4.03 µM | 9.01 µM |  |  |  |
| Cc1c(CC(=O)N[C@@H](C)c2cnc(C#N)nc2)c(=O)[nH]c2cc(F)c(F)cc12 (single isomer, unassigned) [compound 2075] | 0.52 µM | 0.04 µM | 0.07 µM |  |  |  |

Next, values leading:

| Ventricular EC25 ([1]; Y75 value (no ‡ mark)) | Skeletal EC25 ([2]; Y75 value (no ‡ mark)) | Atrial EC25 ([3]; Y75 value (no ‡ mark)) | Atrial EC25 [3, 4] | Ventricular EC25 [1, 4] | Skeletal EC25 [2, 4] | SMILES |
| --- | --- | --- | --- | --- | --- | --- |
| 46.49 µM | 2.56 µM | 100.00 µM |  |  |  | Cc1cc([C@@H](C)NC(=O)Cc2c(C)c3c(C)c(F)ccc3[nH]c2=O)ncc1F (single isomer, unassigned) [compound 2076] |
| 100.00 µM | 0.29 µM | 1.50 µM |  |  |  | Cc1cc([C@H](C)NC(=O)Cc2c(C)c3c(C)c(F)ccc3[nH]c2=O)ncc1F (single isomer, unassigned) [compound 2077] |
| 0.07 µM | 0.03 µM | 0.13 µM |  |  |  | Cc1nc(C#N)ccc1[C@H](C)NC(=O)Cc1c(C)c2c(C)c(F)ccc2[nH]c1=O (single isomer, unassigned) [compound 2079] |
| 0.45 µM | 0.15 µM | 0.17 µM |  |  |  | Cc1c(C(F)(F)C(=O)N[C@H](C)c2ncc(C#N)cc2F)c(=O)[nH]c2cccc(C#N)c12 (single isomer, unassigned) [compound 2501] |
| 0.20 µM | 0.03 µM | 0.09 µM |  |  |  | Cc1c(C(F)(F)C(=O)N[C@@H](C)c2ncc(C#N)cc2F)c(=O)[nH]c2cccc(C#N)c12 (single isomer, unassigned) [compound 2502] |
| 100.00 µM | 100.00 µM | 100.00 µM |  |  |  | Cc1c(C2(C(=O)N[C@@H]3CCc4cc(C#N)cnc43)CC2)c(=O)[nH]c2ccc(F)cc12 (single isomer, unassigned) [compound 2503] |
| 100.00 µM | 100.00 µM | 100.00 µM |  |  |  | Cc1c(C2(C(=O)N[C@H]3CCc4cc(C#N)cnc43)CC2)c(=O)[nH]c2ccc(F)cc12 (single isomer, unassigned) [compound 2504] |
| 100.00 µM | 100.00 µM | 100.00 µM |  |  |  | C[C@@H](NC(=O)C1(c2cc3c(F)c(F)ccc3[nH]c2=O)CC1)c1nccc(C#N)n1 (single isomer, unassigned) [compound 2505] |
| 100.00 µM | 100.00 µM | 100.00 µM |  |  |  | C[C@H](NC(=O)C1(c2cc3c(F)c(F)ccc3[nH]c2=O)CC1)c1nccc(C#N)n1 (single isomer, unassigned) [compound 2506] |
| 100.00 µM | 19.51 µM | 4.10 µM |  |  |  | C[C@@H](NC(=O)C1(c2cc3cc(F)ccc3[nH]c2=O)CC1)c1nccc(C#N)n1 (single isomer, unassigned) [compound 2507] |
|  | 5.03 µM | 100.00 µM |  | 70.50‡ μM |  | C[C@H](NC(=O)C1(c2cc3cc(F)ccc3[nH]c2=O)CC1)c1nccc(C#N)n1 (single isomer, unassigned) [compound 2508] |
|  |  |  | 100.00‡ μM | 77.92‡ μM | 94.41‡ μM | Cc1c(C2(C(=O)N[C@H](C)c3nccc(C#N)n3)CC2)c(=O)[nH]c2ccc(F)c(F)c12 (single isomer, unassigned) [compound 2509] |
|  |  | 7.78 µM |  | 77.57‡ μM | 85.63‡ μM | Cc1c(C2(C(=O)N[C@@H](C)c3nccc(C#N)n3)CC2)c(=O)[nH]c2ccc(F)c(F)c12 (single isomer, unassigned) [compound 2510] |
| 33.47 µM |  | 1.53 µM |  |  | 100.00‡ μM | Cc1c(F)ccc2[nH]c(=O)c(C(F)(F)C(=O)N[C@@H](C)c3ncc(C#N)cn3)c(C#N)c12 (single isomer, unassigned) [compound 2512] |
| 100.00 µM | 100.00 µM | 5.06 µM |  |  |  | Cc1c(C(F)(F)C(=O)N[C@@H]2CCc3cc(C#N)cnc32)c(=O)[nH]c2ccc(F)cc12 (single isomer, unassigned) [compound 2515] |
